# Measurements reported in the METLIN SMRT retention time set (Domingo-Almenara et al. 2019).
# Assay: gradient 5% acetonitrile 3 min, to 50% in 2 min, to 85% in 15 min, held 3 min, 100 µL/min
# Conditions: column: Zorbax Extend-C18 2.1 x 50 mm; eluents: water / acetonitrile, 0.1% formic acid
# Procedure, shortened: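 Mixtures of ~100 pure standards were chromatographed on a Zorbax Extend-C18 column (2.1 × 50 mm, 1.8 μm) at 100 μL/min using water and acetonitrile, each with 0.1% formic acid. Detection used a quadrupole time-of-flight mass spectrometer in positive and negative ionization mode, and data collection spanned 3 months. Retention time was obtained from adduct peaks picked computationally and each checked manually.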
row,RP-LC retention time [s],SMILES
1,589,CCN1CCN(C(=O)c2cn(-c3ccc(NC(=O)CC(C)C)cn3)cn2)CC1
2,721,COc1ccc(-c2c(C)noc2NC(C)=O)cc1S(=O)(=O)Nc1ccccc1
3,684,CCOC(=O)c1[nH]c(C)c(CN(Cc2ccc(C)cc2)C(=O)COC)c1C
4,808,COc1ccccc1NC(=O)C1CCCN1S(=O)(=O)c1cc2c(cc1C)NC(=O)CO2 (stereo not drawn)
5,630,O=C(Nc1ccc2c(c1)OCCO2)C1CCN(c2cc(N3CCCC3)ncn2)CC1
6,704,Cc1cccc(NC(=O)NCC2CCOCC2)c1C
7,898,CCCn1c(C)c(C)c(S(=O)(=O)c2ccc(OC)cc2)c1NC(=O)C1CCCO1 (stereo not drawn)
8,738,COc1ccccc1Cc1noc(C2CN(C(=O)CCc3c(C)noc3C)C2)n1
9,964,COc1cccc(C(=O)Nc2nc(-c3ccc4c(c3)NC(=O)C(C)O4)c(C)s2)c1 (stereo not drawn)
10,695,COc1ccc(C(=O)N2C[C@@H]3C[C@H](NS(=O)(=O)c4ccccc4)[C@H]2C3)cn1
11,831,Cc1noc(-c2cc(=O)n(CC(=O)Nc3ccc4c(c3)OCO4)c3ccccc23)n1
12,961,CCOC(=O)C1=C(C)NC2=C(C(=O)c3ccccc32)C1c1ccccc1OCC (stereo not drawn)
13,655,CCCN(C)C(=O)C1CCCN(c2cnc3nccnc3c2)C1 (stereo not drawn)
14,674,Cc1nn(C)cc1C(=O)N(Cc1ccccc1)c1ccccn1
15,905,COCCN1C(=O)c2ccccc2C(C(=O)Nc2ccccc2OC)C12CCCC2 (stereo not drawn)
16,776,CCOc1ccc(Nc2cc(C(=O)N3CCCC(C)C3)nc3ccc(C)cc23)cc1 (stereo not drawn)
17,774,COc1ccccc1CCNC(=O)CCCn1cccc1
18,881,O=C(CN1CCN(Cc2ccc(F)cc2Cl)C1=O)N1CCN(c2ccccc2)CC1
19,868,CCC1Oc2ccc(S(=O)(=O)N3CCC(C(=O)Nc4ccc(C)cc4C)CC3)cc2NC1=O (stereo not drawn)
20,713,COc1ccc(C(=O)N2C(C(=O)NC(C)C)COC23CCN(C(=O)CC(C)(C)C)CC3)cc1 (stereo not drawn)
21,619,COC[C@@H]1CN(S(=O)(=O)C(C)C)C[C@H]1c1ccccn1
22,819,CC(=O)c1cccc(NC(=O)Cn2c(=O)n(-c3ccc(C)cc3)c(=O)c3c2cc(C)n3C)c1

row,RP-LC retention time [s],SMILES
1,894,CCc1noc(NC(C)=O)c1-c1ccc(OC)c(S(=O)(=O)Nc2ccc(C)cc2Cl)c1
2,1040,CCOc1ccc(N2C(=O)C3N=NN(Cc4nc(-c5cccc(C)c5)no4)C3C2=O)cc1 (stereo not drawn)
3,1090,COC(=O)c1ccccc1Nc1c(-c2cccc(Br)c2)nc2cnccn12
4,670,Cc1nnc(-c2ccc3ccn(CC(=O)Nc4ccccn4)c3c2)o1
5,617,CCCN(CCC)CC(=O)N1CC(=O)Nc2ccccc21
6,972,COc1ccccc1N1CCN(C(=O)c2nnc(-c3ccc(S(=O)(=O)N4CCCC4)cc3)o2)CC1
7,584,O=C(c1ccc2c(c1)OCO2)N1CCCn2nc(-c3ccncc3)cc2C1
8,837,CC1=C(c2ccc(C)cc2)S(=O)(=O)N=C1N1CCCN(C(=O)c2ccccc2)CC1
9,1070,CCN1CCn2cc(S(=O)(=O)Nc3ccccc3F)cc2C1=O
10,1180,COc1ccc(C2Cn3nnc(-c4nc(-c5ccc(F)c(F)c5)no4)c3CO2)cc1 (stereo not drawn)
11,912,O=C(Cn1c(=O)oc2ccccc21)Nc1nc(-c2ccccc2)cs1
12,764,Cc1ccc(-c2nnc(-c3cccc(S(=O)(=O)NCC(=O)O)c3)o2)cc1
13,544,O=C(COc1ccc(Cl)cc1)NCC#CCN1CCCC1
14,1220,CCN(Cc1ccccc1)S(=O)(=O)c1c(C)nn(-c2ccc(-c3ccccc3)nn2)c1C
15,679,CCCS(=O)(=O)NCCNc1cc(-n2nc(C)cc2C)ncn1
16,919,CCc1nc2ccccc2c(=O)n1Cc1noc(-c2cc(OC)c(OC)c(OC)c2)n1
17,937,CCN(c1ccccc1)S(=O)(=O)c1ccc2c(c1)N(C(C)=O)CCCS2
18,805,O=C(Cc1cccs1)Nc1nnc(SCC(=O)N2CCCc3ccccc32)s1
19,807,CN(C)c1ccc(CN2CCc3nc(N4CCN(c5ccccc5F)CC4)ncc3C2)cc1
20,1310,O=S(=O)(c1ccc(Cl)s1)N1CCc2nc(-c3ccc(Cl)cc3)ncc2C1
21,618,CCC(=O)Nc1ccc2c(c1)CCC(=O)N2CCOC
22,699,Cc1ccc2oc(CN3CCN(C(=O)Nc4ccccc4F)CC3)nc2c1

row,RP-LC retention time [s],SMILES
1,686,Cc1oc(C2CCN(C(=O)Nc3ccc(F)cc3)CC2)nc1C(=O)N1CCOCC1
2,938,Cc1cc(-c2nnc(-c3ccccc3)o2)c(C)n1CC(=O)Nc1cccc(F)c1
3,567,CC(C)CCN1CCC(N2CCN(C(=O)c3cccs3)CC2)C1=O (stereo not drawn)
4,570,CN(C)CC1(O)CCC2(CCN(C(=O)c3ccoc3)CC2)CC1
5,681,CCCC(=O)Nc1ccc2c(c1)CN(C(=O)c1ccc(C#N)cc1)C(C(=O)N(C)C)C2 (stereo not drawn)
6,779,CCCNC(=O)N1CCC(c2cnn(-c3ccccc3)c2)CC1
7,970,CCCCC(C=O)NC(=O)[C@H](CC(C)C)NC(=O)OCc1ccccc1 (stereo partly drawn)
8,721,CCN1CCCn2cc(S(=O)(=O)Nc3ccc(F)cc3)cc2C1=O
9,861,COc1ccc(C(=O)NC2c3ccccc3-c3ccccc32)cc1OC
10,814,COc1cccc(Cn2nc3ccc(S(=O)(=O)N4CCCC4)cn3c2=O)c1
11,1290,Cc1ccc(-c2csc(NC(=O)CCCOc3ccc(Cl)cc3Cl)n2)cc1
12,865,CC(C)N1C(=O)c2cccnc2Sc2cc(NC(=O)c3c(F)cccc3F)ccc21
13,1340,Cc1sc2ncnc(N3CCCC(C)C3)c2c1C(=O)Nc1ccc(C(F)(F)F)cc1 (stereo not drawn)
14,893,COc1ccc(-n2c(=O)n(C)c(=O)c3cc(C(=O)Nc4cc(F)ccc4C)cnc32)cc1
15,1140,Cc1ccc(Sc2nccnc2N2CCCC(C(=O)Nc3ccc(F)cc3C)C2)cc1 (stereo not drawn)
16,810,COC(=O)c1cccc(Nc2c(-c3ccc(OC)cc3)nc3cnccn23)c1
17,679,O=C(NCc1cccc(Br)c1)c1ccc2ncnc(N3CCCC3)c2c1
18,903,Cc1nnsc1C(=O)N1CCN(c2nc3ccc(OC(F)(F)F)cc3s2)CC1
19,681,O=C(Cc1ccc(NC(=O)c2ccc(F)cc2Cl)cc1)NC1CC1
20,742,O=C(NCCn1nnc2cc(C(=O)N3CCCC3)ccc21)Nc1ccc(Br)cc1F
21,1200,COc1ccc(OC)c(NC(=O)c2cc3nc(-c4cccs4)cc(C(F)(F)F)n3n2)c1
22,871,COc1cccc(-c2noc(C3CC(=O)N(c4ccc5c(c4)OCO5)C3)n2)c1OC (stereo not drawn)

row,RP-LC retention time [s],SMILES
1,815,CC(C)NC(=O)N1CC(c2nc(-c3ccc(F)cc3)no2)C2(CCOCC2)C1 (stereo not drawn)
2,786,COc1ccc(F)cc1S(=O)(=O)N1C[C@@H]2C[C@H]1C[C@@H]2NC(=O)c1ccccc1
3,1040,CCOc1ccc(CNC(=O)C2CCN(S(=O)(=O)N(CC(C)C)CC(C)C)CC2)cc1OC
4,855,CC(NC(=O)Cn1c(C(F)(F)F)nc2cc3c(cc21)OCCO3)c1ccc2c(c1)OCCCO2 (stereo not drawn)
5,1020,Cc1cccc(-c2noc(-c3sc4ncn(CC(=O)N5CCCC5)c(=O)c4c3C)n2)c1
6,592,COCCNC(=O)CN1CCN(c2cc(C(=O)O)c3cc(NC(=O)c4ccccc4)ccc3n2)CC1
7,986,Cc1ccc(CNS(=O)(=O)c2ccc3c(c2)C(=O)N(C)c2ncccc2O3)cc1C
8,824,O=C(c1ccc(F)c(Cl)c1)N(CC1CCOC1)C1CC1 (stereo not drawn)
9,589,CCOC(=O)N1CCN(CC(O)COc2ccc(Cl)cc2Cl)CC1 (stereo not drawn)
10,835,CCc1cc(C2CCCN2C(=O)Nc2cccc(OC)c2)on1 (stereo not drawn)
11,716,CC(=O)N1CCC(C(=O)Nc2cccc(OCc3nnc(-c4ccccc4)o3)c2)CC1
12,794,O=C(Cn1nc2c(cc1=O)CCCCC2)NCCc1c[nH]c2ccc(F)cc12
13,955,CC(C)Cc1nnc(C(=O)Nc2cccc(C(=O)NCCc3c[nH]c4ccccc34)c2)s1
14,637,O=C(c1ccc(=O)oc1)N1CCN(Cc2nc(-c3ccccc3)cs2)CC1
15,652,COc1ccc(CNC(=O)N2CCC(c3noc(-c4cnccn4)n3)C2)cc1 (stereo not drawn)
16,619,Cc1cc2n(n1)CCC(=O)N2CCCC(=O)NCc1ccco1
17,1130,CCCCCn1c(=O)c2ccccc2n(Cc2nc(-c3ccccc3OC)no2)c1=O
18,688,CCc1noc(NC(C)=O)c1-c1ccc(OC)c(S(=O)(=O)Nc2ccc(OC)c(OC)c2)c1
19,1220,Cc1nc2cc(-c3noc(-c4cccc(C(F)(F)F)c4)n3)ccc2o1
20,708,Cc1cccc(-c2ccc(N3CCCC(C(=O)NC4CCCC4)C3)nn2)c1 (stereo not drawn)
21,1020,CCn1cc(C2=CCN(S(=O)(=O)c3ccc(F)cc3)CC2)c2cccnc21

row,SMILES,RP-LC retention time [s]
1,CCCN(CCC)C1CCc2cc(O)c(O)cc2C1 (stereo not drawn),641
